Data as given in PMC13629022 (ACS Omega, 2026).
Entries after “also recorded” stand apart in the source; their conditions may differ. Like-named read-outs stand apart in the source and are kept apart here.

Legend:
[1] = tested on: murine macrophage-like J774.A1 cells; assay: Cytotoxicity to J774.A1 macrophages (Alamar Blue); conditions: concentrations up to 500 μM (compounds 7 and 13 up to 250 μM)
Experimental: Cells were incubated for 72 h at 37 °C in a 5% CO2 atmosphere, as previously described. They were then stimulated with LPS (500 ng/mL, Sigma Chemical Co., St. Louis, MO, USA) and IFN-γ (5 ng/mL, Sigma). Compounds were added to the medium at eight concentrations ranging from 1.9 to 500 μM, in triplicate, and incubated for 24 h. Subsequently, 20 μL per well of Alamar Blue (Invitrogen, Carlsbad, CA, USA) was added to the plates for 6 h. Compounds 7, 11, and 13 were evaluated only up to a maximum concentration of 250 μM due to the limited amount of purified material available for testing. Colorimetric readings were performed at 570 and 600 nm. Triton X-100 (5%) was used as the positive control.

[2] = tested on: nitric oxide production by stimulated J774.A1 macrophages; assay: Nitric oxide production by LPS + IFN-γ stimulated J774.A1 macrophages (nitrite, Griess method); assay type: cell-based, murine; conditions: Mus musculus; for Emax: read-out: efficacy: maximum effect (% of the maximum possible effect), inhibition of NO production, J774.A1 macrophages stimulated with LPS + IFN-γ, 24 h
Experimental: (§1) For cytokine and nitric oxide evaluations, J774.A1 cells were seeded in 96-well tissue culture plates at 2 × 10^5 cells per well in DMEM supplemented with 10% FBS and 50 μg/mL gentamicin and incubated for 2 h at 37 °C in a 5% CO2 atmosphere, as previously described. Cells were then stimulated with LPS (500 ng/mL) and IFN-γ (5 ng/mL) in the presence of either the test compounds at different concentrations (3.9–250 μM), the medium alone, or dexamethasone (40 μM, reference drug) and further incubated at 37 °C. Cell-free supernatants were collected 24 h after incubation for IL-1β, IL-6, and nitrite quantification. Cytokine concentrations in the supernatants of J774.A1 cultures were determined by enzyme-linked immunosorbent assay (ELISA) using the DuoSet kit (R&D Systems, Minneapolis, MN, USA), according to the manufacturer’s instructions. Results were expressed as picograms per milliliter (pg/mL) of IL-1β or IL-6. Quantification of nitrite as an indicator of nitric oxide production was performed using the Griess method. Three independent experiments were performed. −

[3] = tested on: IL-1β production by stimulated J774.A1 macrophages; assay: IL-1β production by LPS + IFN-γ stimulated J774.A1 macrophages (ELISA); assay type: cell-based, murine; conditions: compounds at 62.5 μM, Dexa 40 μM, 24 h, vs stimulated untreated cells, p < 0.05
Experimental: as §1, with “Cells” for “For cytokine and nitric oxide evaluations, J774.A1 cells were seeded in 96-well tissue culture plates at 2 × 10^5 cells per well in DMEM supplemented with 10% FBS and 50 μg/mL gentamicin and incubated for 2 h at 37 °C in a 5% CO2 atmosphere, as previously described. Cells”

[4] = tested on: IL-6 production by stimulated J774.A1 macrophages; assay: IL-6 production by LPS + IFN-γ stimulated J774.A1 macrophages (ELISA); assay type: cell-based, murine; conditions: compounds at 62.5 μM, Dexa 40 μM, 24 h, vs stimulated untreated cells, p < 0.05
Experimental: as §1, with “Cells” for “For cytokine and nitric oxide evaluations, J774.A1 cells were seeded in 96-well tissue culture plates at 2 × 10^5 cells per well in DMEM supplemented with 10% FBS and 50 μg/mL gentamicin and incubated for 2 h at 37 °C in a 5% CO2 atmosphere, as previously described. Cells”

[5] = J774.A1, 24 h, read-out: IC50, half maximal inhibitory concentration, NO production, J774.A1 macrophages stimulated with LPS (500 ng/mL) + IFN-γ (5 ng/mL), 24 h, nitrite by Griess

SMILES	cytotoxic effects in J774 macrophages (in words) [1]	IC50 [2, 5]	Emax ([2]; J774.A1, 24 h)	production of IL-1β (in words) [3]	production of IL-6 (in words) [4]	IC50 ([2]; J774.A1, read-out: IC50 (in Figure 8 panels), nitric oxide production, Figure 8, no unit in the boxes, μM only in axis labels, LPS + IFN-γ stimulated J774.A1)
COC1CC(OC2CCC3(C)C(CCC4(O)C3CC(OC(=O)C=Cc3ccccc3)C3(C)C(O)(C(C)OC(=O)c5ccccc5)CCC43O)C2)OC(C)C1OC1CC(OC)C(OC2OC(C)C(O)C(OC)C2O)C(C)O1 [Compound 4, 12-O-cinnamoyl-20-O-benzoyl-(20R)-5,6-dihydrosarcostin-3-O-β-D-6-deoxy-3-O-methyl-allopyranosyl-(1 → 4)-β-D-oleandropyranosyl-(1 → 4)-β-D-cymaropyranoside]	did not induce cytotoxic effects	> 100 µM	< 50%	significant reduction	reduced IL-1β production but not IL-6	–
COC1CC(OC2CCC3(C)C(CCC4(O)C3CC(OC(=O)C=Cc3ccccc3)C3(C)C(O)(C(C)OC(=O)c5cccnc5)CCC43O)C2)OC(C)C1OC1CC(OC)C(OC2OC(C)C(O)C(OC)C2O)C(C)O1 [Compound 2, 12-O-cinnamoyl-20-O-nicotinoyl-(20R)-5,6-dihydrosarcostin-3-O-β-D-6-deoxy-3-O-methyl-allopyranosyl-(1 → 4)-β-D-oleandropyranosyl-(1 → 4)-β-D-cymaropyranoside]	did not induce cytotoxic effects	32.1 µM	> 70%	significant reduction; also recorded: comparable to those of Dexa	comparable to those of Dexa	–
COC1CC(OC2CCC3(C)C(CCC4C3CC(OC(=O)C=Cc3ccccc3)C3(C)C(C(C)O)CCC43O)C2)OC(C)C1OC1CC(OC)C(OC2OC(C)C(O)C(OC)C2O)C(C)O1 [Compound 10, 12-O-cinnamoyl-(20S)-5,6,8,17-tetrahydrosarcostin-3-O-β-D-6-deoxy-3-O-methyl-allopyranosyl-(1 → 4)-β-D-oleandropyranosyl-(1 → 4)-β-D-cymaropyranoside]	most cytotoxic	17.5 µM	66.1%	significantly reducing; also recorded: significant reduction; also recorded: comparable to those of Dexa	significantly reducing; also recorded: comparable to those of Dexa	17.5 µM
COC1CC(OC2CCC3(C)C(=CCC4(O)C3CC(OC(=O)C=Cc3ccccc3)C3(C)C(O)(C(C)OC(=O)c5cccnc5)CCC43O)C2)OC(C)C1OC1CC(OC)C(OC2OC(C)C(O)C(OC)C2O)C(C)O1 [Compound 1, 12-O-cinnamoyl-20-O-nicotinoyl-(20R)-sarcostin-3-O-β-D-6-deoxy-3-O-methyl-allopyranosyl-(1 → 4)-β-D-oleandropyranosyl-(1 → 4)-β-D-cymaropyranoside]	did not induce cytotoxic effects	24.5 µM	> 70%	significant reduction; also recorded: comparable to those of Dexa	comparable to those of Dexa	–
